We go through 9 compounds from US20100292185A1, “BETA-LACTAMASE INHIBITORS” (priority 2009, published 2010).

Assay [1] concerns K. pneumoniae expressing the Class A carbapenemase KPC-2. Description: microbe, parasite or virus in culture. In kind it is cell-based. The conditions noted are these: for MIC: Klebsiella pneumoniae, read-out: MIC alone, K. pneumoniae KPC-2. From the text: (§1) To determine the ability of test compounds to potentiate the inhibition of the growth of bacterial strains producing beta-lactamase enzymes, classic cell based screening assays were employed. Five bacteria strains producing beta-lactamase enzymes were used: K. pneumoniae expressing the Class A Extended Spectrum Beta-Lactamase (ESBL) CTX-M-15, E. coli expressing the Class A ESBL SHV-5, E. cloacae expressing the Class C P99+, K. pneumoniae expressing the Class A carbapenemase KPC-2, and P. aeruginosa expressing the Class B metallo β-lactamase VIM-2. In order to evaluate the ability of test compounds to inhibit beta-lactamase activity, Applicants used a modification of the broth microdilution assay. The assay was conducted in Cation Adjusted Mueller Hinton Broth (CAMHB, BD # 212322, BD Diagnostic Systems, Sparks, Md.). Bacteria strains were grown for 3-5 hours in CAMBH broth. All five strains were grown in presence of 50 μg/mL ampicillin to ensure resistance is maintained. In the meantime, test compounds were diluted in DMSO to a 0.1 mg/mL stock. The compounds were added to a microtiter plate and were diluted in 2-fold serial dilutions in CAMHB in a final concentration range of 8 μg/mL to 0.015 μg/ml. […] Each of these compound plates are made in quadruplicate, one for each bacteria strain. In addition to the titration of test compounds the MICs of a panel of cephalosporins is also tested to ensure the strains are behaving consistently from test to test. Once the test compound and cephalosporin are added the plates can be inoculated. Inocula are conducted according to CLSI broth microdilution method. After inoculation the plates are incubated for 16-20 hours at 37° C. then the Minimal Inhibitory Concentration (MIC) of the test compound is determined visually.
(§2) Using the methodology described above, examples of the current invention were evaluated for their ability to inhibit the growth of β-lactamase producing bacteria in the presence of a β-lactam antibiotic.

Assay [2] deals with E. coli expressing the Class A ESBL SHV-5. Briefly: In vitro antibacterial assay of β-lactamase inhibition (broth microdilution MIC), E. coli SHV-5. In kind it is cell-based. The conditions noted are these: for MIC: Escherichia coli, read-out: MIC alone, E. coli SHV-5.
Text: as §1, §2
In general terms: Broth dilution looks for growth in wells or tubes with falling amounts of substance.

The subject of assay [3] is E. cloacae expressing the Class C P99+. Briefly: In vitro antibacterial assay of β-lactamase inhibition (broth microdilution MIC), E. cloacae P99+. In kind it is cell-based. The conditions noted are these: for MIC: Enterobacter cloacae, read-out: MIC alone, E. cloacae P99+ AmpC.
Text: as §1, §2

The test system of assay [4] is K. pneumoniae expressing the Class A Extended Spectrum Beta-Lactamase (ESBL) CTX-M-15. Description: In vitro antibacterial assay of β-lactamase inhibition (broth microdilution MIC), K. pneumoniae CTX-M-15. It is filed as cell-based. The conditions noted are these: for MIC: Klebsiella pneumoniae, read-out: MIC alone, K. pneumoniae CTX-M-15.
Text: as §1, §2

Assay [5] relates to P. aeruginosa expressing the Class B metallo β-lactamase VIM-2. Description: In vitro antibacterial assay of β-lactamase inhibition (broth microdilution MIC), P. aeruginosa VIM-2. As to conditions: for MIC: Pseudomonas aeruginosa, read-out: MIC alone, P. aeruginosa VIM-2. In kind it is cell-based.
Text: as §1, §2

The target of a further assay is T1, CTX-M15 β-lactamase (Escherichia coli, UniProt Q9EXV5).
T1 construct: expressed as native untagged proteins; made in house; host or cells: E. coli BL21(DE3)
T1 sequence (Q9EXV5 entry or part of it): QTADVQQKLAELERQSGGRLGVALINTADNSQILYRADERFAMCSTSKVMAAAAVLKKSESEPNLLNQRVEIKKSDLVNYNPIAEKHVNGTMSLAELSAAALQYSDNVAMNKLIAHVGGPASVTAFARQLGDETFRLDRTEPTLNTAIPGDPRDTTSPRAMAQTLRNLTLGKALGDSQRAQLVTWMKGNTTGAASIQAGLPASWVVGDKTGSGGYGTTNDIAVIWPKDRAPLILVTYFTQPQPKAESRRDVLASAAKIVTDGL
Description: β-lactamase enzyme inhibition assay (nitrocefin substrate), CTXM-15. It is filed as biochemical. The method, then: (§3) Isolation of β-lactamases. For SHV-5, p99 AmpC, KPC-2 and CTX-M15 β-lactamases, E. coli BL21(DE3) bacterial cells carrying expression plasmids (expressed as native untagged proteins) for the individual β-lactamases were grown in 1 L of Superbroth (Teknova Inc. Hollister, Calif.) supplemented with 100 μg/ml kanamycin and 1×5052 (0.5% glycerol, 0.05% glucose and 0.2% α-lactose) at 35° C. for 18-20 hours. Cells were harvested by centrifugation (4,000×g, 4° C., 20 min), and resuspended in 50 ml of 10 mM HEPES pH 7.5 (1/20 of the initial volume). The cells were lysed by sonication (5 pulses of 45 seconds) at 45 W on ice. The lysates were clarified by centrifugation at 10,000×g for 40 minutes at 4° C. Samples were diluted 5-fold in 50 mM sodium acetate pH 5.0, stored overnight at 4° C., after which they were centrifuged at 10,000×g for 30 minutes to clarify, and filtered through 0.45 μm filters. The samples were loaded onto a 5 ml Capto S sepharose cation exchange column (GE Healthcare) pre-equilibrated with 50 mM sodium acetate pH 5.0. The column was washed with 5 column volumes of 50 mM sodium acetate pH 5.0 to wash out unbound protein and a linear gradient of NaCl (0 to 500 mM) was used to elute the protein (over 16 CV) from the column. Fractions were assayed for β-lactamase activity using Centa (Calbiochem, Gibbstown, N.J.) as a reporter β-lactamase substrate for activity in the isolated fractions. Active fractions were pooled, concentrated and further purified by gel filtration chromatography on a Superdex 75 prep grade gel filtration column (GE Healthcare, Piscataway, N.J.) pre-equilibrated in 50 mM Hepes pH 7.5, 150 mM NaCl. Active fractions were pooled concentrated, quantitated by BCA protein determination (Thermo Scientific, Rockford, Ill.), and frozen at −80° C. in 20% glycerol until use.
(§4) β-lactamase Inhibition. To determine the level of inhibition of β-lactamase enzymes, compounds were diluted in PBS at pH 7.0 to yield concentrations between 100 and 0.005 μM in microtiter plates. An equal volume of diluted enzyme stock was added, and the plates were incubated at 37° C. for 10 min. Nitrocefin solution was then dispensed as substrate into each well at a final concentration of 100 μM, and the plates were immediately read with the kinetic program at 486 nm for 10 min on the SPECTRAMAX® Plus^384 (high-throughput microplate spectrophotometer; Molecular Devices Corp., Sunnyvale, Calif.). Maximum rates of metabolism were then compared to those in control wells (without inhibitors), and percentages of enzyme inhibition were calculated for each concentration of inhibitor. The concentration of inhibitor needed to reduce the initial rate of hydrolysis of substrate by 50% (IC50) was calculated as the residual activity of β-lactamase at 486 nm using the SoftMax Pro 5.0 software (Molecular Devices Corp.).
(§5) Using the methodology described above, examples of the current invention were evaluated for their ability to inhibit β-lactamase enzymes. The results of these assays are summarized in Table 2 for representative enzymes across different subtypes (note SHV-5 and CTXM-15 exemplify different subclasses of Ambler Class A Extended Spectrum Beta Lactamases, KPC-2 exemplifies Class A carbapenemases, P99 represents chromosomal Class C AmpC, VIM-2 exemplifies subclass B1 of metallo-β-lactamases, and OXA-23 represents chromosome-encoded Class D oxacillin-hydrolyzing β-lactamases), NT=not tested.

The next assay has as its target T2, KPC-2 β-lactamase (Klebsiella pneumoniae, UniProt Q9F663).
T2 construct: expressed as native untagged proteins; made in house; host or cells: E. coli BL21(DE3)
Description: β-lactamase enzyme inhibition assay (nitrocefin substrate), KPC-2. It is filed as biochemical. As to the method: as §3, §4, §5

Another assay addresses T3, SHV-5 β-lactamase (Klebsiella pneumoniae, UniProt P0A3M1).
T3 construct: expressed as native untagged proteins; made in house; host or cells: E. coli BL21(DE3)
Description: β-lactamase enzyme inhibition assay (nitrocefin substrate), SHV-5. In kind it is biochemical. As to the method:
as §3, §4, §5

The target of a further assay is T4, p99 AmpC β-lactamase (Enterobacter cloacae, UniProt P05364).
T4 construct: expressed as native untagged proteins; made in house; host or cells: E. coli BL21(DE3)
T4 sequence (P05364 21-381): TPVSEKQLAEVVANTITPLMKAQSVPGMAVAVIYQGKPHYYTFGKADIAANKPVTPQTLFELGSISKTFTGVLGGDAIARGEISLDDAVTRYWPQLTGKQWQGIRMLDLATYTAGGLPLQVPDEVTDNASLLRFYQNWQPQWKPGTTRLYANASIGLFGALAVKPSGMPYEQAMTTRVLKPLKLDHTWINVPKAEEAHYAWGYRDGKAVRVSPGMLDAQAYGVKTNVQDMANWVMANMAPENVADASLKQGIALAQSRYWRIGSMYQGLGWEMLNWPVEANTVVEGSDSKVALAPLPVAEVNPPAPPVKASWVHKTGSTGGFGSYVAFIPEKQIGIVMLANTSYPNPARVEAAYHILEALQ
Description: β-lactamase enzyme inhibition assay (nitrocefin substrate), P99 AmpC. It is filed as biochemical. As to conditions: nitrocefin 100 μM, 37° C., PBS pH 7.0; read-out: P99 AmpC IC50. The method, then: as §3, §4, §5

Setting [6] is: in presence of Ceftazidime 8 μg/ml (Examples 1-56).
Where [7] appears, read: in presence of Piperacillin 16 μg/ml (Examples 57-65).

The structures appear in SMILES notation. Where a name gives a salt, the structure may show the parent alone.

T2 sequence (Q9F663 25-293 limits assumed): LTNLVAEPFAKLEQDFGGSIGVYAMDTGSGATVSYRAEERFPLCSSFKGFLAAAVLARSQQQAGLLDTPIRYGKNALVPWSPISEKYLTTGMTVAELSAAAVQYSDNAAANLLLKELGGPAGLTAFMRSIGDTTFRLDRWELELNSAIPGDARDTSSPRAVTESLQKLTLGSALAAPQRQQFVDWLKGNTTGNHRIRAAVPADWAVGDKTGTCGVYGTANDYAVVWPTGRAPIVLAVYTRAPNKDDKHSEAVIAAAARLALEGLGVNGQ
T3 sequence (P0A3M1 22-286): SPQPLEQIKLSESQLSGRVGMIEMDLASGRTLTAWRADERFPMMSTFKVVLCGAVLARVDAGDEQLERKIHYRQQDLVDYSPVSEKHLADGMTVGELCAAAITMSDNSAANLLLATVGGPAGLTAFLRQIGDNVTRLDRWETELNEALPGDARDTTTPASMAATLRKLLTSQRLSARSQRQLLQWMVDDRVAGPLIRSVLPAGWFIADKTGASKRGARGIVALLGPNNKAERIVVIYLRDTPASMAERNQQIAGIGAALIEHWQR

In the case of `CC(C)(O/N=C(\C(=O)N[C@@H]1C(=O)N2C(C(=O)[O-])=C(C[n+]3ccccc3)CS[C@H]12)c1csc(N)n1)C(=O)O` [Ceftazidime, reference compound], the MIC in [1] was 32 µg/mL; in assay [2] it was greater than 1020 µg/mL; in assay [3] it was 128 µg/mL; in assay [4] it was 128 µg/mL; in assay [5] it was 128 µg/mL.

For the compound `Cl.O=C(N[C@@H](Cc1cccc(C(=O)O)c1O)B(O)O)c1ccc(CNCc2cccnc2)cc1` [Example 17, (1R)-[4-(pyridin-3-ylmethylaminomethyl]-benzoylamino-(3-carboxy-2-hydroxy)benzyl-methylboronic acid hydrochloride], the IC50 was 5 nM against CTX-M15 β-lactamase, 15 nM on KPC-2 β-lactamase, greater than 1000 nM against SHV-5 β-lactamase and 8 nM at p99 AmpC β-lactamase.

`Cl.O=C(N[C@@H](Cc1cccc(C(=O)O)c1O)B(O)O)c1ccc(CNCc2cccnc2)cc1` [Example 17]: in [1] (setting [6]), the “MIC of example compound, K. pneumoniae KPC-2” value (“MIC … K. pneumoniae KPC-2” below) was determined as 0.12 µg/mL. Further, the “MIC of example compound, E. coli SHV-5” value in assay [2] (setting [6]) is greater than 8 µg/mL. Moreover, the “MIC of example compound, E. cloacae P99+” value in assay [3] (setting [6]) stood at 1 µg/mL. Further, in assay [4] (setting [6]), the “MIC of example compound, K. pneumoniae CTX-M-15” value (shortened to “MIC … K. pneumoniae CTX-M-15”) worked out at 2 µg/mL. Besides, the “MIC of example compound, P. aeruginosa VIM-2” value in [5] (in presence of Ceftazidime 16 μg/mL (Examples 1-56)) is greater than 8 µg/mL.

On to `N=C(N)NCCC[C@H](NCc1ccc(CC(=O)N[C@@H](Cc2cccc(C(=O)O)c2O)B(O)O)cc1)C(=O)O` [Example 59, (1R)-1-(2-{4-[(1-Carboxy-4-guanidino-butylamino)-methyl]-phenyl}-acetylamino)-1-[(3-carboxy-2-hydroxy)benzyl]-methylboronic acid formate], for which, in assay [1] (setting [7]), the “MIC … K. pneumoniae KPC-2” value is 1 µg/mL. The “MIC of example compound, E. coli SHV-5” value in assay [2] (setting [7]) worked out at 0.5 µg/mL. In addition, the “MIC of example compound, E. cloacae P99+” value in [3] (setting [7]) is 2 µg/mL. For the same compound, the “MIC … K. pneumoniae CTX-M-15” value in assay [4] (setting [7]) was greater than 16 µg/mL. Besides, the half-inhibitory concentration (IC50) at KPC-2 β-lactamase worked out at 15 nM; against SHV-5 β-lactamase, 2 nM; on p99 AmpC β-lactamase, 6 nM.

Take `O=C(Cc1ccc(CNC(CO)C(=O)O)cc1)N[C@@H](Cc1cccc(C(=O)O)c1O)B(O)O` (stereo partly drawn) [Example 60, (1R)-1-(2-{4-[(1-Carboxy-2-hydroxy-ethylamino)-methyl]-phenyl}-acetylamino)-1-[(3-carboxy-2-hydroxy)benzyl]-methylboronic acid formate]: in assay [1] (setting [7]), the “MIC … K. pneumoniae KPC-2” value was 0.5 µg/mL. The “MIC of example compound, E. coli SHV-5” value in [2] (setting [7]) is 1 µg/mL. The “MIC of example compound, E. cloacae P99+” value in assay [3] (setting [7]) was determined as 2 µg/mL. Moreover, the “MIC … K. pneumoniae CTX-M-15” value in assay [4] (setting [7]) was greater than 16 µg/mL. For the same compound, the IC50 against KPC-2 β-lactamase stood at 11 nM; against SHV-5 β-lactamase, 2 nM; on p99 AmpC β-lactamase, 9 nM.

In the case of `N=C(N)NCc1ccc(CC(=O)N[C@@H](Cc2cccc(C(=O)O)c2O)B(O)O)cc1` [Example 61, (1R)-1-{2-[4-(1-guanidinomethyl)-phenyl]-acetylamino}-1-[(3-carboxy-2-hydroxy)benzyl]-methylboronic acid formate salt], the “MIC … K. pneumoniae KPC-2” value in [1] (setting [7]) came out at 0.25 µg/mL. The IC50 at CTX-M15 β-lactamase amounted to 4 nM; on KPC-2 β-lactamase, 14 nM; against SHV-5 β-lactamase, 2 nM; on p99 AmpC β-lactamase, 11 nM. Besides, in assay [2] (setting [7]), the “MIC of example compound, E. coli SHV-5” value turned out to be 0.25 µg/mL. For the same compound, in assay [3] (setting [7]), the “MIC of example compound, E. cloacae P99+” value came out at 0.25 µg/mL. The “MIC … K. pneumoniae CTX-M-15” value in assay [4] (setting [7]) came to 16 µg/mL.

Take `N=C(N)c1ccc(CC(=O)N[C@@H](Cc2cccc(C(=O)O)c2O)B(O)O)cc1` [Example 62, (1R)-1-{2-[4-(Carbamimidoyl)-phenyl]-acetylamino}-1-[(3-carboxy-2-hydroxy)benzyl]-methylboronic acid formate salt]: the “MIC … K. pneumoniae KPC-2” value in assay [1] (setting [7]) came to 0.125 µg/mL. In [2] (setting [7]), the “MIC of example compound, E. coli SHV-5” value turned out to be 0.125 µg/mL. Besides, the “MIC of example compound, E. cloacae P99+” value in assay [3] (setting [7]) worked out at 0.125 µg/mL. For the same compound, the “MIC … K. pneumoniae CTX-M-15” value in assay [4] (setting [7]) is greater than 128 µg/mL. In addition, the values for the IC50 against KPC-2 β-lactamase, at SHV-5 β-lactamase and on p99 AmpC β-lactamase were 9 nM, 2 nM and 3 nM, respectively.

Take `N=C(N)NCc1cccc(CC(=O)N[C@@H](Cc2cccc(C(=O)O)c2O)B(O)O)c1` [Example 65, (1R)-1-{2-[3-(1-guanidinomethyl)-phenyl]-acetylamino}-1-[(3-carboxy-2-hydroxy)benzyl]-methylboronic acid formate salt]: in assay [1] (setting [7]), the “MIC … K. pneumoniae KPC-2” value was found to be 0.5 µg/mL. Moreover, in assay [2] (setting [7]), the “MIC of example compound, E. coli SHV-5” value is 0.25 µg/mL. In addition, the “MIC of example compound, E. cloacae P99+” value in assay [3] (setting [7]) is 0.25 µg/mL. Moreover, the “MIC … K. pneumoniae CTX-M-15” value in assay [4] (setting [7]) is greater than 16 µg/mL.

With `CCN1CCN(C(=O)N[C@@H](C(=O)N[C@@H]2C(=O)N3[C@@H]2SC(C)(C)[C@@H]3C(=O)O)c2ccccc2)C(=O)C1=O` [Pip, Piperacillin, reference compound], the MIC in assay [1], in [2], in assay [3], in assay [4] and in assay [5] was greater than 128 µg/mL throughout.

Broadly, the IC50 is the midpoint of a concentration-inhibition curve.
